Experimental data published in article PMC6941357, “An in vitro toolbox to accelerate anti-malarial drug discovery and development” (Malaria Journal, 2020).
Converted amounts (≈) assume the structure as drawn. “And” between values parts separate entries of the source, which are not always exact repeats. Identical values can stand only once. Like-named read-outs stand apart in the source and are kept apart here.

Legend:
[1] = Octanol/pH 7.4 buffer partition coefficient, shake flask; settings: pH 7.4
In short: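 Both phases were measured by LC-MS, the aqueous phase after re-centrifugation, and the partition coefficient was taken as the octanol-to-buffer concentration ratio over two sampling times. Equal volumes of octanol, holding compound at two dilutions of a 3-30 mg/mL stock, and pH 7.4 phosphate/NaCl buffer were mixed at 37 °C.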

[2] = Plasma protein binding via ultracentrifugation (UC); type: in vitro ADME, human; settings: pH 7.4
Experimental: Pooled human plasma (n = 3–4 donors) was obtained by centrifugation of blood (collected by the Australian Red Cross Blood Service, Melbourne, Australia or the Volunteer Blood Donor Registry, Clinical Translation Centre, Walter & Eliza Hall Institute of Medical Research, Parkville, Australia), or sourcing pooled plasma directly from commercial sources (Innovative Research Inc, MI) and stored frozen at − 80 °C.
An ultracentrifugation method adapted from a previous publication was initially used to assess plasma protein binding and binding in the other media. […] Additional ultracentrifuge tubes containing spiked matrix were maintained at 37 °C, 5% or 10% CO2 or normal atmosphere conditions, with aliquots being taken within 0.5 h of the start and at the end of ultracentrifugation to serve as controls for the assessment of stability and to obtain a measure of the total concentration (Ctotal). Following ultracentrifugation, the pH was checked and an aliquot of protein-free supernate was taken from each ultracentrifuge tube for determination of the unbound concentration (Cunbound).
Total matrix and protein free samples were analysed using a matrix matching approach whereby each sample was mixed in a 1:1 ratio with the opposite blank medium (i.e. blank total matrix or blank protein free buffer). For example, plasma samples were mixed with blank pH 7.4 buffer whereas plasma supernatant samples were mixed with blank plasma. Each of the sample sets were then assayed against a common calibration curve prepared in a 1:1 mixture of total matrix and protein free pH 7.4 buffer. […] The standard deviation for fu was calculated using the propagation of errors approach as described previously. The potential for compound degradation was assessed by comparing the average value for Ctotal at the start and end of the experiment.

[3] = target: CYP2C9 (Homo sapiens, UniProt P11712); assay: Cytochrome P450 inhibition in human liver microsomes
In short: (§1)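 Substrate-specific interaction method in human liver microsomes: the test compound's effect on production of a single isoform-dependent metabolite, quantified by LC–MS using diazepam as internal standard, is reported as percent inhibition of enzyme activity. Substrate Km was determined under the same incubation conditions.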

[4] = target: CYP2C19 (Homo sapiens, UniProt P33261); assay: as above
In short: as §1

[5] = target: CYP3A4 (Homo sapiens, UniProt P08684); assay: as above
In short: as §1

[6] = In vitro metabolism (metabolic stability) in human liver microsomes; settings: human, pH 7.4, HLM CLint
In short: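 Intrinsic clearance (µL/min/mg protein) came from the first-order substrate-depletion rate in human liver microsomes, using only the initial log-linear phase where kinetics deviated. Samples were quenched at 2, 5, 15, 30 and 60 min and quantified by LC–MS. Unbound CLint was obtained by dividing by microsomal fu.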

[7] = Solubility in biorelevant media; settings: for solubility at 1 h / solubility: thermodynamic from solid
Experimental: Solubility of each active pharmaceutical ingredient was evaluated at 37 °C in pH 7.4 phosphate buffered saline (prepared as described for the partitioning experiments), fasted (FaSSIF-V2) and fed (FeSSIF-V2) state simulated intestinal fluids and fasted state simulated gastric fluid (FaSSGF) as described by Jantratid et al.. […] Samples were vortexed and placed in a 37 °C incubator on an orbital mixer (IKA® VXR basic Vibrax® orbital mixer) set at 600 rpm. Sampling times were 1 h for FaSSGF or 5–6 h for FaSSIF-V2, FeSSIF-V2, and PBS. These times were used to reflect the maximal likely residence times within the stomach and small intestine, respectively. Sampling was carried out by centrifuging each sample at 10,000 rpm for 3 min, transferring 300 µL aliquots into fresh Eppendorf tubes and centrifuging these tubes again at 10,000 rpm for 3 min. Triplicate aliquots of the supernatant were then removed and diluted 1:2 in 50% aqueous methanol and then again in 50% aqueous acetonitrile to be within the analytical concentration range. Samples were analysed by LC–MS along with calibration standards (Additional file 1: Table S2).

[8] = target: T1, Albumax medium (lipid rich bovine serum albumin) (Bos taurus, UniProt P02769); assay: Binding in Albumax medium via ultracentrifugation; type: in vitro ADME; settings: bovine
T1 construct: purchased Gibco, Thermo Fisher Scientific
In short: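 Unbound fraction (fu) taken as protein-free supernate concentration over total concentration after ultracentrifuging compound-spiked Albumax at 37 °C (5% or 10% CO2, or air). Analysis used 1:1 mixing with the opposite blank matrix against a common pH 7.4 calibration; degradation judged by start versus end Ctotal.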

[9] = human, neat pooled plasma, ultracentrifugation, neat plasma, read-out: Fraction unbound, human plasma
[10] = CYP3A4 (midaz) IC50, human liver microsomes, CYP3A4 (midaz), highest concentration tested 20 µM
[11] = CYP3A4 (test) IC50, human liver microsomes, CYP3A4 (test), highest concentration tested 20 µM
[12] = liver microsomes, human liver microsomes, average of n = 2 replicates, < 7 means < 15% loss over 60 min
[13] = FaSSGF, 37 °C, fassgf or other biorelevant
[14] = phosphate buffered saline pH 7.4, 37 °C, pH 7.4, aqueous buffer
[15] = human, microsomes, pH 7.4, CYP3A4 (test) % inhibition at max conc
[16] = human liver microsomes, at max conc, nmi = no measurable inhibition

CYP3A4, sequence (P08684 whole entry): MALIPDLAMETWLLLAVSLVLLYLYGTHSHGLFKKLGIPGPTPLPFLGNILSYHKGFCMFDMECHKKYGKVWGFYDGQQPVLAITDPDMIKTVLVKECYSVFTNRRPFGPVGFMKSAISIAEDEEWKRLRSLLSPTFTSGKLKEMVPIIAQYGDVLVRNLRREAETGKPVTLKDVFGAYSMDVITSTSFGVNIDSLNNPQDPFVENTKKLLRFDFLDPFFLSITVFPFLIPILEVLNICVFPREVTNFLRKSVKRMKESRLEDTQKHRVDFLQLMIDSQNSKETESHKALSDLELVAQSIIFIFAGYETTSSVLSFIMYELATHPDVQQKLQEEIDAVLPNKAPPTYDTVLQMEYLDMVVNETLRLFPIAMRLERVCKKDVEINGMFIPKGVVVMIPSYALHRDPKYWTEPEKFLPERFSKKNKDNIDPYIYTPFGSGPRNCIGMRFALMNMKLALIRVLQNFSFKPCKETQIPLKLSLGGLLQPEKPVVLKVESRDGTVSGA
T1 sequence (P02769 25-607): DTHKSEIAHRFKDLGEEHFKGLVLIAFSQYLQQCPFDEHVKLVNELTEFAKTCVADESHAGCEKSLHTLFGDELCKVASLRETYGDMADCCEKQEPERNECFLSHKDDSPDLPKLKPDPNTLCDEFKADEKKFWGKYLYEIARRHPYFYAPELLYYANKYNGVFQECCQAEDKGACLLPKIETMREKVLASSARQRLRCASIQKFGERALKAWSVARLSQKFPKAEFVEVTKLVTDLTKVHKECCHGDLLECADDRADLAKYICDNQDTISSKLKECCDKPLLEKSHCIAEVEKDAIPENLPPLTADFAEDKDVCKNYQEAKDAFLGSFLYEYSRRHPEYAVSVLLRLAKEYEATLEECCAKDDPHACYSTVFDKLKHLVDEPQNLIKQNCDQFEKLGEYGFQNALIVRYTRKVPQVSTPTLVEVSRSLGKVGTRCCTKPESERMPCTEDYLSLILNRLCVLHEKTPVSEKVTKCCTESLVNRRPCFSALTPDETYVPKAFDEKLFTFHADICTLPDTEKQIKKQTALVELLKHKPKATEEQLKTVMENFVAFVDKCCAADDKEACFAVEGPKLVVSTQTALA
CYP2C9, sequence (P11712 whole entry, canonical isoform): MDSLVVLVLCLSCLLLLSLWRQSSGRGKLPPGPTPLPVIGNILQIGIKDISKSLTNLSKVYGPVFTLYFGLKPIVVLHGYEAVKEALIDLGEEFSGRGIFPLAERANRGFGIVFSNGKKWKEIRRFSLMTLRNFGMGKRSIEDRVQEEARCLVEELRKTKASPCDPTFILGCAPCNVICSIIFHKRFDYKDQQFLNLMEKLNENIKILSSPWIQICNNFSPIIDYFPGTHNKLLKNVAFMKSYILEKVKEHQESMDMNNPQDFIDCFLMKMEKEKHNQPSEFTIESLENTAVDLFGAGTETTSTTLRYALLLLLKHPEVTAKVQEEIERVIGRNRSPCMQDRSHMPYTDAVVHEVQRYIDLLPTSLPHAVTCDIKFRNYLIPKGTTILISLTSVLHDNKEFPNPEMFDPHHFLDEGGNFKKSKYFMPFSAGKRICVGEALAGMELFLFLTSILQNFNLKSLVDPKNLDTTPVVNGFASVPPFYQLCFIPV
CYP2C19, sequence (P33261 whole entry): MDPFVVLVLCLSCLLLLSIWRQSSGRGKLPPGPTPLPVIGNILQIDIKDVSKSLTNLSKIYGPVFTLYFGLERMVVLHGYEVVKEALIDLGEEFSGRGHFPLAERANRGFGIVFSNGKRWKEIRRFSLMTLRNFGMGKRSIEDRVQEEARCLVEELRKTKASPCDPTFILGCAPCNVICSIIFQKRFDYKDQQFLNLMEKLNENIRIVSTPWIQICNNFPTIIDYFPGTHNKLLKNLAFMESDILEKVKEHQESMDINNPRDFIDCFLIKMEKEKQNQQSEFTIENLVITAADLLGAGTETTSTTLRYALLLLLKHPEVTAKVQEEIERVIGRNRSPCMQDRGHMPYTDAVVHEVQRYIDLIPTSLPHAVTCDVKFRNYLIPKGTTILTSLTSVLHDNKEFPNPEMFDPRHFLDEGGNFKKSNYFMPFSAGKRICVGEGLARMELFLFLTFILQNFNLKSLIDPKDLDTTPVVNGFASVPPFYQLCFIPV

Row | logD ([1]; octanol/pH 7.4 buffer) | SMILES | fraction unbound at […] [2, 9] | IC50 [3] | IC50 [4] | IC50 [5, 10] | IC50 [5, 11] | microsomal CLint at 1 µM [6, 12] | solubility at 1 h [7, 13] | solubility ([7]; FaSSIF-V2, 37 °C, fassif) | solubility ([7]; FeSSIF-V2, 37 °C, fessif) | solubility [7, 14] | CYP2C9 % inhibition at max conc ([3]; microsomes) | CYP2C19 % inhibition at max conc ([4]; microsomes) | CYP3A4 (midaz) % inhibition at max conc ([5]; microsomes) | CYP3A4 (test) % inhibition at max conc ([5]; microsomes) | fraction unbound at […], 500 ng/mL ([8]; isolated protein, pH 7.4) | further results
1 | 4.24 | COc1cc(C)c2c(Oc3cccc(C(F)(F)F)c3)c(OC)cc(NC(C)CCCN)c2n1 (centres unmarked) [Tafenoquine] | 0.11 | 14 µM | > 20 µM | > 20 µM | 3.8 µM | < 7 µL/min/mg | > 2000 µg/mL and > 2800 µM | 15.8 µg/mL and 34.1 µM | 1310 µg/mL and 2820 µM | 18.3 µg/mL and 39.5 µM | – | – | – | – | – | logD ([1]; octanol/pH 7.4 phosphate buffered saline): 4.24; fraction unbound at […] ([2]; human plasma, fraction unbound, read-out: Plasma fu): 0.0007; Ki [3]: 10 µM; inhibition at 20 µM ([4]; human, microsomes, pH 7.4): 42%; Ki ([5]; CYP3A4 (test) Ki, human liver microsomes, CYP3A4 (test)): 2.3 µM; inhibition at 20 µM ([5]; human, microsomes, pH 7.4, CYP3A4 (midaz) % inhibition at max conc): 40%; FaSSGF solubility ([7]; FaSSGF): > 2000 µg/mL
2 | – | C[C@H]1[C@H](OC(=O)CCC(=O)O)O[C@@H]2O[C@@]3(C)CC[C@H]4[C@H](C)CC[C@@H]1[C@@]24OO3 [Artesunate] | – | > 20 µM | > 20 µM | – | – | – | 835 µM (≈ 321 µg/mL) | 1690 µg/mL and 4390 µM | 1720 µg/mL and 4490 µM | 1680 µg/mL and 4370 µM | nmi | nmi | nmi | nmi | – | fraction unbound at […] ([2]; human, pooled plasma, ultracentrifugation, instability evident, estimate only, read-out: Fraction unbound, human plasma): 0.27 ± 0.008; IC50 ([5]; human, microsomes, pH 7.4, CYP3A4 (test) IC50): > 20 µM; fraction unbound at […], 500 ng/mL ([8]; Albumax medium, pH 7.4, instability evident, estimate only): 0.14 ± 0.007; microsomal CLint at 1 µM ([6]; microsomes): 146 µL/min/mg; solubility ([7]; 37 °C, fassgf or other biorelevant): 321 µg/mL (≈ 835 µM)
3 | – | CC1(C)N=C(N)N=C(N)N1c1ccc(Cl)cc1 [Cycloguanil] | 0.75 ± 0.04 | > 20 µM | > 20 µM | > 20 µM | > 20 µM | < 7 µL/min/mg | > 2000 µg/mL and > 7950 µM | > 2000 µg/mL and > 7950 µM | 533 µg/mL and 2120 µM | > 2000 µg/mL and > 7950 µM | nmi | nmi | nmi | nmi | 0.88 ± 0.057 | –
4 | – | COc1ncnc(NS(=O)(=O)c2ccc(N)cc2)c1OC [Sulfadoxine] | 0.036 ± 0.001 | > 20 µM | > 20 µM | – | – | < 7 µL/min/mg | 324 µg/mL and 1040 µM | 858 µg/mL and 2770 µM | 474 µg/mL and 1530 µM | > 1900 µg/mL and > 6400 µM | nmi | nmi | nmi | nmi | 0.5 ± 0.03 | –
5 | – | C[C@H]1c2cccc(O)c2C(=O)C2=C(O)[C@]3(O)C(=O)C(C(N)=O)=C(O)[C@@H](N(C)C)[C@@H]3[C@@H](O)[C@@H]21 [Doxycyclin] | 0.23 | > 20 µM | > 20 µM | > 20 µM | > 20 µM | < 7 µL/min/mg | > 2000 µg/mL and > 4500 µM | > 2000 µg/mL and > 4500 µM | > 2000 µg/mL and > 4500 µM | > 2000 µg/mL and > 4500 µM | nmi | nmi | nmi | – | 0.41 ± 0.023 | inhibition at 20 µM [5, 15]: 22%; solubility ([7]; FaSSGF, FaSSIF-V2, FeSSIF-V2 and PBS pH 7.4, 37 °C, pH 7.4, aqueous buffer): > 2000 µg/mL
6 | – | CCCCN(CCCC)CCC(O)c1cc2c(Cl)cc(Cl)cc2c2cc(C(F)(F)F)ccc12 (centres unmarked) [Halofantrine] | 0.13 | > 20 µM | > 20 µM | – | – | – | 12.7 µg/mL and 25.4 µM | 69.9 µg/mL and 140 µM | 739 µg/mL and 1480 µM | < 0.05 µg/mL and < 0.1 µM | – | – | – | – | – | CYP2C9 % inhibition at max conc [3, 16]: nmi; CYP2C19 % inhibition at max conc [4, 16]: nmi; inhibition at 20 µM ([5]; human, microsomes, pH 7.4, CYP3A4 (midaz) % inhibition at max conc, human liver microsomes, CYP3A4 (midaz), at max conc, nmi = no measurable inhibition): 24%; inhibition at 20 µM ([5]; human, microsomes, pH 7.4, CYP3A4 (test) % inhibition at max conc, human liver microsomes, CYP3A4 (test), at max conc, nmi = no measurable inhibition): 19%; fraction unbound at […], 500 ng/mL ([8]; Albumax medium, pH 7.4): 0.008 ± 0.001; microsomal CLint at 1 µM ([6]; microsomes): 26.9 µL/min/mg
7 | – | C[C@H]1Cc2c([nH]c3cc(Cl)c(F)cc23)[C@@]2(N1)C(=O)Nc1ccc(Cl)cc12 [KAE609] | 0.057 | 5.5 µM | < 0.25 µM | > 20 µM | > 20 µM | 24.1 µL/min/mg | 1540 µg/mL and 3940 µM | 111 µg/mL and 284 µM | 1240 µg/mL and 3180 µM | 30.4 µg/mL and 77.9 µM | – | – | nmi | – | 0.044 ± 0.004 | Ki [3]: 4 µM; Ki [4]: < 0.15 µM; inhibition at 20 µM [5, 15]: 30%
8 | – | Clc1ccc2c(N3CCN(CCCN4CCN(c5ccnc6cc(Cl)ccc56)CC4)CC3)ccnc2c1 [Piperaquine] | 0.042 | – | > 20 µM | 4.5 µM | > 20 µM | 20.1 µL/min/mg | > 2000 µg/mL and > 3700 µM | 103 µg/mL and 192 µM | 60.7 µg/mL and 113 µM | < 0.5 µg/mL and < 0.9 µM | – | nmi | – | nmi | 0.019 ± 0.004 | Ki ([5]; CYP3A4 (midaz) Ki, human liver microsomes, CYP3A4 (midaz)): 3.2 µM
9 | 5.3 | O=C1C(O)=C([C@H]2CC[C@H](c3ccc(Cl)cc3)CC2)C(=O)c2ccccc21 [Atovaquone] | 0.002 | > 20 µM | > 20 µM | – | – | < 7 µL/min/mg | 0.26 µg/mL and 0.71 µM | 1.83 µg/mL and 4.99 µM | 6.41 µg/mL and 17.5 µM | < 0.05 µg/mL and < 0.1 µM | – | nmi | nmi | nmi | – | inhibition at 20 µM ([3]; human, microsomes, pH 7.4): 26%

Row | SMILES | logD ([1]; octanol/pH 7.4 buffer) | fraction unbound at […] [2, 9] | IC50 [3] | IC50 [4] | IC50 [5, 10] | IC50 [5, 11] | microsomal CLint at 1 µM [6, 12] | solubility at 1 h [7, 13] | solubility ([7]; FaSSIF-V2, 37 °C, fassif) | solubility ([7]; FeSSIF-V2, 37 °C, fessif) | solubility [7, 14] | CYP2C9 % inhibition at max conc ([3]; microsomes) | CYP2C19 % inhibition at max conc ([4]; microsomes) | CYP3A4 (midaz) % inhibition at max conc ([5]; microsomes) | CYP3A4 (test) % inhibition at max conc ([5]; microsomes) | fraction unbound at […], 500 ng/mL ([8]; isolated protein, pH 7.4) | further results
10 | Cc1cc(Nc2ccc(S(F)(F)(F)(F)F)cc2)n2nc(C(C)(F)F)nc2n1 [DSM265] | 4.03 | 0.008 | – | – | – | – | – | – | – | – | 2.04 µg/mL and 4.9 µM | – | – | – | – | – | –
